Results as given in BindingDB's records for patent US10696638 (INDUSTRIAL TECHNOLOGY RESEARCH INSTITUTE, 2020).

Target: Rho-associated protein kinase 2 (Homo sapiens, UniProt O75116)
Assay: ELISA Assay
Protocol: ROCK Substrate Coated Plate (Part No 241601): One strip well 96-well plate pre-coated with recombinant MYPT1.Buffer: 25 mM Tris, pH 7.5, 10 mM MgCl2, 5 mM Glycerol-2-Phosphate, 0.1 mM Na3VO4; 1% DMSO; 2.5 mM DTT; (Enzyme: ROCK active-II) (Cell Biolabs, Catalog #STA-406, Part No. 241505) 0.1 ng/μl.ATP Solution (Part No. 241604): 100 mM ATP. Final concentration of ATP in reaction mixture: 250 μM.Anti-phospho-MYPT1 (Thr696) (Part No. 241603).Secondary Antibody, HRP Conjugate (Part No. 231003).Biotinylated substrate, diluted to 0.25 μM with buffer described above (without ATP).Steps:1. Purified kinase or cell lysate sample can be used directly in the kinase assay or further diluted with 1× Kinase Buffer. Each sample should be assayed in duplicate.2. Add 90 μL of the diluted active ROCK-II positive control or unknown ROCK samples to the wells of the substrate plate.3. Initiate the kinase reaction by adding 10 μL of the 10× Kinase Reaction Buffer containing DTT and ATP. Mix well.4. Cover with a plate cover and incubate the wells at 30° C. for 30-60 minutes with gentle agitation.5. Stop kinase reaction by flicking out the content or by adding 50 μL of 0.5M EDTA, pH 8.0, to each well.6. Remove the plate cover and empty wells. Wash microwell strips 3 times with 250 μL 1× Wash Buffer per well with thorough aspiration between each wash. After the last wash, empty wells and tap microwell strips on absorbent pad or paper towel to remove excess 1× Wash Buffer.7. Add 100 μL of the diluted anti-phospho-MYPT1 (Thr696) antibody to each well.8. Cover with the plate cover and incubate at room temperature for 1 hour on an orbital shaker.9. Remove the plate cover and empty wells. Wash the strip wells 3 times according to step 6 above.10. Add 100 μL of the diluted HRP-conjugated secondary antibody to each well.11. Cover with the plate cover and incubate at room temperature for 1 hour on an orbital shaker.12. Remove the plate cover and empty wells. Wash microwell strips 3 times according to step 6 above. Proceed immediately to the next step.13. Warm Substrate Solution to room temperature. Add 100 μL of Substrate Solution to each well, including the blank wells. Incubate at room temperature for 5-20 minutes on an orbital shaker.14. Stop the enzyme reaction by adding 100 μL of Stop Solution into each well, including the blank wells. Results should be read immediately (color will fade over time).15. Read absorbance of each microwell on a spectrophotometer using 450 nm as the primary wave length.

Chain of Rho-associated protein kinase 2 (O75116 whole entry): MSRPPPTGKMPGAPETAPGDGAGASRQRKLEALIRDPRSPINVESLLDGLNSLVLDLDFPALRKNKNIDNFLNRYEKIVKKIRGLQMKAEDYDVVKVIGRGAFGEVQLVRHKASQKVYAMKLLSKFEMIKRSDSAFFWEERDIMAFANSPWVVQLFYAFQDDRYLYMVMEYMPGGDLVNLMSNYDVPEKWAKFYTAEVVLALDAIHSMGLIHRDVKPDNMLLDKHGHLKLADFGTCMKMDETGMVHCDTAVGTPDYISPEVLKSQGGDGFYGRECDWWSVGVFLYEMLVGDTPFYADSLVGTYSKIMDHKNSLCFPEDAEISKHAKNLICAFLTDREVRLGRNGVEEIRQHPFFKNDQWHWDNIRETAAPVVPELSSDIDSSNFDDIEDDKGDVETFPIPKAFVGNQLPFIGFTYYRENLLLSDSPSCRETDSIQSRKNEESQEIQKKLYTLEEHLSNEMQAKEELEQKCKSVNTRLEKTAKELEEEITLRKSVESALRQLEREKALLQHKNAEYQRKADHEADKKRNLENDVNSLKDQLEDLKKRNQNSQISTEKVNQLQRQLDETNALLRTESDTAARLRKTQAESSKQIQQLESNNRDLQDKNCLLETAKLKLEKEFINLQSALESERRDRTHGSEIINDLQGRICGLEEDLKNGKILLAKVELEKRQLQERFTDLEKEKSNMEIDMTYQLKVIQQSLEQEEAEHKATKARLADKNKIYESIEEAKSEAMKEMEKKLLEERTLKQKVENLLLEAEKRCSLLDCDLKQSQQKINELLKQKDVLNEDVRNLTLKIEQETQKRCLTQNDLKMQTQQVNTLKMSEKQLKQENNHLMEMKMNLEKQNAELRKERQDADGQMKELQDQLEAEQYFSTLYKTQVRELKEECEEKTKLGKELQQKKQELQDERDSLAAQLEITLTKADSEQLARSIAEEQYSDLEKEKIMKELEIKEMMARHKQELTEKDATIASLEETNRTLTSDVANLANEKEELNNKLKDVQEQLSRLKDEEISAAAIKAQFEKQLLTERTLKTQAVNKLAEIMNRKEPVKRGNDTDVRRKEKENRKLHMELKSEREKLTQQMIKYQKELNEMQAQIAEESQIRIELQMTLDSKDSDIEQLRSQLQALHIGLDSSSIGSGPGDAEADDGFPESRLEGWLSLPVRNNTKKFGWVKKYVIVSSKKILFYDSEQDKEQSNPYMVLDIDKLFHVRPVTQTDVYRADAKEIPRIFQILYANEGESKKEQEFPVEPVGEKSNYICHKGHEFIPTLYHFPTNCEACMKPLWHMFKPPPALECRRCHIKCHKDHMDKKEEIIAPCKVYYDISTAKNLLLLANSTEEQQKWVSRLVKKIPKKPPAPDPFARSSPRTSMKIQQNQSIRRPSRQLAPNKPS

Compound	IC50
CN(C)CCN(Cc1ccc(F)cc1)C(=O)Nc1ccc2cnccc2c1 [US10696638, Table 1.2]	> 1000 nM
O=C(Nc1cccc2cnccc12)N[C@@H](CO)c1ccccc1 [US10696638, formula (I) 4]	> 1000 nM
CN(C)CCN(Cc1ccc(F)cc1)C(=O)Nc1cccc2cnccc12 [US10696638, formula (I) 5]	> 1000 nM

Second part, the molecule after the results:

IC50	Compound
> 1000 nM	O=C(Nc1ccc2cnccc2c1)N[C@@H](CO)c1ccccc1 [US10696638, Table 1.6]
> 1000 nM	O=C(Nc1cccc2cnccc12)N(Cc1ccc(Cl)cc1)C1CCNCC1 [US10696638, formula (I) 9]
